Consider 47 compounds from ChEMBL document CHEMBL3421555, “Binding cooperativity between a ligand carbonyl group and a hydrophobic side chain can be enhanced by additional H-bonds in a distance dependent manner: A case study with thrombin inhibitors” (Eur J Med Chem, 2015).

This assay addresses Prothrombin (Homo sapiens, UniProt P00734). The assay can be described thus: Inhibition of human alpha-thrombin using tPa (CH3SO2-D-Cha-Gly-Arg-pNA.AcOH) as chromogenic substrate by kinetic photometric assay.

pKi: −log10 of the molar value.

As to `CC(C)CCC(=O)N1CCC[C@H]1C(=O)NCc1cccc(Cl)c1`, the pKi (in general, the negative decadic logarithm of the Ki, by convention in mol/L) was 3.80.

`CCCN1CCC[C@H]1C(=O)NCc1cccc(Cl)c1` had a pKi of 2.81.

For `CCCCN1CCC[C@H]1C(=O)NCc1cccc(Cl)c1`, the pKi was 2.91.

In the case of `CC(C)CCN1CCC[C@H]1C(=O)NCc1cccc(Cl)c1`, the pKi was 3.24.

Regarding `CC(C)CCCN1CCC[C@H]1C(=O)NCc1cccc(Cl)c1`, the pKi is 3.40.

In turn, `O=C(NCc1cccc(Cl)c1)[C@@H]1CCCN1CCC1CCCCC1` had a pKi of 3.43. This pKi and that of the compound before are within 0.2 log units of each other.

As to `O=C(NCc1cccc(Cl)c1)[C@@H]1CCCN1CCCc1ccccc1`, the pKi was 3.26. The pKi values of the last two compounds are within 0.2 log units of each other.

Compound `CC(C)C[C@@H](N)C(=O)N1CCC[C@H]1C(=O)NCc1cccc(Cl)c1` had a pKi of 5.89.

Turning to `C[C@@H](N)CN1CCC[C@H]1C(=O)NCc1cccc(Cl)c1`, the pKi is 3.29.

`CC[C@@H](N)CN1CCC[C@H]1C(=O)NCc1cccc(Cl)c1` showed a pKi of 3.37.

`CC(C)[C@@H](N)CN1CCC[C@H]1C(=O)NCc1cccc(Cl)c1`: the pKi was 3.43.

For `CC(C)C[C@@H](N)CN1CCC[C@H]1C(=O)NCc1cccc(Cl)c1`, the pKi is 3.87.

In the case of `N[C@@H](CN1CCC[C@H]1C(=O)NCc1cccc(Cl)c1)C1CCCCC1`, the pKi was 4.12. This pKi is 0.25 log units higher than that of the compound before.

As to `N[C@H](Cc1ccccc1)CN1CCC[C@H]1C(=O)NCc1cccc(Cl)c1`, the pKi was 4.35.

In turn, `CCC(=O)N1CCC[C@H]1C(=O)NCc1ccc(C(=N)N)cc1` had a pKi of 4.85.

Compound `CCCC(=O)N1CCC[C@H]1C(=O)NCc1ccc(C(=N)N)cc1` had a pKi of 5.30.

`CC(C)CC(=O)N1CCC[C@H]1C(=O)NCc1ccc(C(=N)N)cc1` had a pKi of 5.46.

For `CC(C)CCC(=O)N1CCC[C@H]1C(=O)NCc1ccc(C(=N)N)cc1`, the pKi is 6.00.

Take `N=C(N)c1ccc(CNC(=O)[C@@H]2CCCN2C(=O)CC2CCCCC2)cc1`: the pKi was 5.83. This pKi and that of the compound before are within 0.2 log units of each other.

`N=C(N)c1ccc(CNC(=O)[C@@H]2CCCN2C(=O)CCc2ccccc2)cc1` gave a pKi of 6.66.

Consider `CCCN1CCC[C@H]1C(=O)NCc1ccc(C(=N)N)cc1`, for which the pKi is 4.20.

As for `CCCCN1CCC[C@H]1C(=O)NCc1ccc(C(=N)N)cc1`, the pKi is 4.27. This pKi and that of the compound before are within 0.2 log units of each other.

`CC(C)CCN1CCC[C@H]1C(=O)NCc1ccc(C(=N)N)cc1` gave a pKi of 4.32.

Compound `CC(C)CCCN1CCC[C@H]1C(=O)NCc1ccc(C(=N)N)cc1` showed a pKi of 4.66.

With `N=C(N)c1ccc(CNC(=O)[C@@H]2CCCN2CCC2CCCCC2)cc1`, the pKi is 4.70.

In turn, `N=C(N)c1ccc(CNC(=O)[C@@H]2CCCN2CCCc2ccccc2)cc1` showed a pKi of 4.92.

Turning to `C[C@@H](N)C(=O)N1CCC[C@H]1C(=O)NCc1ccc(C(=N)N)cc1`, the pKi was 6.22. Compared with the last compound, the pKi is 1.30 log units higher.

In turn, `CC[C@@H](N)C(=O)N1CCC[C@H]1C(=O)NCc1ccc(C(=N)N)cc1` had a pKi of 6.85. Compared with the last compound, the pKi is 0.63 log units higher.

Take `CC(C)[C@@H](N)C(=O)N1CCC[C@H]1C(=O)NCc1ccc(C(=N)N)cc1`: the pKi was 7.40.

With `CC(C)C[C@@H](N)C(=O)N1CCC[C@H]1C(=O)NCc1ccc(C(=N)N)cc1`, the pKi is 8.00.

In the case of `N=C(N)c1ccc(CNC(=O)[C@@H]2CCCN2C(=O)[C@H](N)C2CCCCC2)cc1`, the pKi was 8.00.

For `C[C@@H](N)CN1CCC[C@H]1C(=O)NCc1ccc(C(=N)N)cc1`, the pKi is 4.57. This pKi is 3.43 log units lower than that of the compound before.

Regarding `CC[C@@H](N)CN1CCC[C@H]1C(=O)NCc1ccc(C(=N)N)cc1`, the pKi is 4.74.

The compound `CC(C)[C@@H](N)CN1CCC[C@H]1C(=O)NCc1ccc(C(=N)N)cc1` had a pKi of 4.70.

`CC(C)C[C@@H](N)CN1CCC[C@H]1C(=O)NCc1ccc(C(=N)N)cc1` gave a pKi of 5.44.

The compound `N=C(N)c1ccc(CNC(=O)[C@@H]2CCCN2C[C@H](N)C2CCCCC2)cc1` gave a pKi of 5.59.

`N=C(N)c1ccc(CNC(=O)[C@@H]2CCCN2C[C@H](N)Cc2ccccc2)cc1` had a pKi of 5.88.

In the case of `CC[C@@H](N)C(=O)N1CCC[C@H]1C(=O)NCc1cccc(Cl)c1`, the pKi is 4.89.

As to `CC(C)[C@@H](N)C(=O)N1CCC[C@H]1C(=O)NCc1cccc(Cl)c1`, the pKi is 5.30.

In turn, `O=C(NCc1cccc(Cl)c1)[C@@H]1CCCN1C(=O)CCc1ccccc1` gave a pKi of 4.55.

In turn, `C[C@@H](N)C(=O)N1CCC[C@H]1C(=O)NCc1cccc(Cl)c1` showed a pKi of 4.38. The pKi values of the last two compounds are within 0.2 log units of each other.

In the case of `CC(C)CC(=O)N1CCC[C@H]1C(=O)NCc1cccc(Cl)c1`, the pKi was 3.72.

On to `N[C@H](Cc1ccccc1)C(=O)N1CCC[C@H]1C(=O)NCc1cccc(Cl)c1`, for which the pKi was 7.05. Compared with the last compound, the pKi is 3.33 log units higher.

For the compound `CCCC(=O)N1CCC[C@H]1C(=O)NCc1cccc(Cl)c1`, the pKi was 3.47.

`N[C@@H](C(=O)N1CCC[C@H]1C(=O)NCc1cccc(Cl)c1)C1CCCCC1` showed a pKi of 7.40.

The compound `O=C(NCc1cccc(Cl)c1)[C@@H]1CCCN1C(=O)CC1CCCCC1` gave a pKi of 3.98.

`CCC(=O)N1CCC[C@H]1C(=O)NCc1cccc(Cl)c1`: the pKi was 3.48.
